The record followed here is ChEMBL document CHEMBL4622969, “Design and biological evaluation of novel HIV-1 protease inhibitors with isopropanol as P1' ligand to enhance binding with S1' subsite” (Bioorg Med Chem, 2020).

Molecules are shown by their SMILES.

Broadly, the IC50 is the midpoint of a concentration-inhibition curve. Read a high IC50 as lower potency.

In assay [1] the target is Human immunodeficiency virus type 1 protease (Human immunodeficiency virus 1, UniProt Q72874). The experiment in a line: Inhibition of HIV-1 protease expressed in Escherichia coli using Arg-Glu(EDANS)-Ser-Gln-Asn-Tyr-Pro-Ile-Val-Gln-Lys(DABCYL)-Arg as substrate preincubated for 20 to 30 mins followed by substrate addition by FRET based assay.
The subject of assay [2] is Human immunodeficiency virus 1. The assay can be described thus: Resistance index, ratio of antiviral activity against VSV-G pseudotyped wild type HIV1 NL4-3 infected in human TZM-b1 cells infected with supernatants from virus-infected human SUPT1 cells to antiviral activity against darunavir-resistant HIV1 NL4-3 infected in human SUPT1 cells infected with supernatants from virus-infected human 293T cells at 5 uM by luciferase assay. It counts as functional.

In assay [3] the test system is Human immunodeficiency virus 1. The assay can be described thus: Antiviral activity against VSV-G pseudotyped wild type HIV1 NL4-3 infected in human TZM-b1 cells at 5 uM infected with supernatants from virus-infected human SUPT1 cells after 48 hrs by luciferase assay relative to control. The class given is functional.
The test system of assay [4] is Human immunodeficiency virus 1. The experiment in a line: Antiviral activity against VSV-G pseudotyped darunavir-resistant HIV1 NL4-3 harboring V32I, L33F,I54M and I84V mutant infected in human SUPT1 cells at 5 uM infected with supernatants from virus-infected human 293T cells after 48 hrs by luciferase assay relative to control. The class given is functional.
The test system of assay [5] is Human immunodeficiency virus 1. The experiment in a line: Antiviral activity against VSV-G pseudotyped wild type HIV1 NL4-3 infected in human TZM-b1 cells at 100 nM infected with supernatants from virus-infected human SUPT1 cells after 48 hrs by luciferase assay relative to control. It counts as functional.
Assay [6] concerns Human immunodeficiency virus 1. The experiment in a line: Antiviral activity against VSV-G pseudotyped darunavir-resistant HIV1 NL4-3 V32I, L33F,I54M and I84V mutant infected in human SUPT1 cells at 100 nM infected with supernatants from virus-infected human 293T cells after 48 hrs by luciferase assay relative to control. It counts as functional.

The compound `COc1ccc(C(=O)N[C@@H](Cc2ccccc2)[C@H](O)CN(C[C@@H](C)O)S(=O)(=O)c2ccc(C(F)(F)F)cc2)c(O)c1` gave an IC50 in assay [1] of 427 nM.
Consider `COc1ccc(C(=O)N[C@@H](Cc2ccccc2)[C@H](O)CN(C[C@H](C)O)S(=O)(=O)c2ccc([N+](=O)[O-])cc2)c(O)c1`, for which, in assay [1], the IC50 amounted to 505 nM.
Still for that read-out and setting: for `COc1ccc(C(=O)N[C@@H](Cc2ccccc2)[C@H](O)CN(C[C@H](C)O)S(=O)(=O)c2ccc(C(F)(F)F)cc2)c(O)c1` the value was 187 nM; for `COc1cc(O)c(C(=O)N[C@@H](Cc2ccccc2)[C@H](O)CN(C[C@@H](C)O)S(=O)(=O)c2ccc(C(F)(F)F)cc2)cc1OC`, 61.4 nM; for `COc1cc(C(=O)N[C@@H](Cc2ccccc2)[C@H](O)CN(C[C@@H](C)O)S(=O)(=O)c2ccc(C(F)(F)F)cc2)cc(OC)c1O`, 11.8 nM.
As for `C[C@@H](O)CN(C[C@@H](O)[C@H](Cc1ccccc1)NC(=O)c1ccccc1O)S(=O)(=O)c1ccc(C(F)(F)F)cc1`, in assay [1], the IC50 was found to be 32.1 nM.
In turn, `C[C@H](O)CN(C[C@@H](O)[C@H](Cc1ccccc1)NC(=O)c1ccc(O)c(O)c1)S(=O)(=O)c1ccc([N+](=O)[O-])cc1` displayed an IC50 in assay [1] of 6.56 nM.
`C[C@H](O)CN(C[C@@H](O)[C@H](Cc1ccccc1)NC(=O)c1ccccc1O)S(=O)(=O)c1ccc([N+](=O)[O-])cc1`: the IC50 in assay [1] stood at 78.2 nM.
In the case of `COc1cc(O)c(C(=O)N[C@@H](Cc2ccccc2)[C@H](O)CN(C[C@H](C)O)S(=O)(=O)c2ccc([N+](=O)[O-])cc2)cc1OC`, half-maximal inhibition in assay [1] (IC50) required 1310 nM.
`COc1cc(C(=O)N[C@@H](Cc2ccccc2)[C@H](O)CN(C[C@H](C)O)S(=O)(=O)c2ccc([N+](=O)[O-])cc2)cc(OC)c1O` displayed an IC50 in assay [1] of 75.8 nM.
Consider `C[C@@H](O)CN(C[C@@H](O)[C@H](Cc1ccccc1)NC(=O)c1ccc(O)cc1O)S(=O)(=O)c1ccc(C(F)(F)F)cc1`, for which, in assay [1], the IC50 amounted to 12.3 nM.
Take `C[C@H](O)CN(C[C@@H](O)[C@H](Cc1ccccc1)NC(=O)c1ccccc1O)S(=O)(=O)c1ccc(C(F)(F)F)cc1`: it took 257 nM to reach half-maximal inhibition in assay [1] (IC50).
Regarding `C[C@@H](O)CN(C[C@@H](O)[C@H](Cc1ccccc1)NC(=O)c1ccc(O)c(O)c1)S(=O)(=O)c1ccc([N+](=O)[O-])cc1`, the midpoint of inhibition in assay [1], the IC50, lay at 10.3 nM.
`COc1ccc(C(=O)N[C@@H](Cc2ccccc2)[C@H](O)CN(C[C@@H](C)O)S(=O)(=O)c2ccc([N+](=O)[O-])cc2)c(O)c1` registered an IC50 in assay [1] of 625 nM.
`COc1cc(C(=O)N[C@@H](Cc2ccccc2)[C@H](O)CN(C[C@@H](C)O)S(=O)(=O)c2ccc([N+](=O)[O-])cc2)cc(OC)c1O` had an IC50 in assay [1] of 13.1 nM.
For `COc1cc(O)c(C(=O)N[C@@H](Cc2ccccc2)[C@H](O)CN(C[C@H](C)O)S(=O)(=O)c2ccc(C(F)(F)F)cc2)cc1OC`, the 50% inhibitory concentration (IC50) in assay [1] is 284 nM.
In assay [1], `C[C@H](O)CN(C[C@@H](O)[C@H](Cc1ccccc1)NC(=O)c1ccc(O)cc1O)S(=O)(=O)c1ccc(C(F)(F)F)cc1` displayed an IC50 of 40.6 nM.
As to `C[C@H](O)CN(C[C@@H](O)[C@H](Cc1ccccc1)NC(=O)c1ccc(O)cc1O)S(=O)(=O)c1ccc([N+](=O)[O-])cc1`, the half-maximal inhibitory concentration (IC50) in assay [1] is 47.1 nM.
For `C[C@@H](O)CN(C[C@@H](O)[C@H](Cc1ccccc1)NC(=O)c1ccc(O)cc1O)S(=O)(=O)c1ccc([N+](=O)[O-])cc1`, in assay [1], the IC50 is 13.4 nM.
`C[C@@H](O)CN(C[C@@H](O)[C@H](Cc1ccccc1)NC(=O)c1cc(O)cc(O)c1)S(=O)(=O)c1ccc(C(F)(F)F)cc1`: the “Selectivity Index” value in assay [2] was 1.49. Moreover, the “inhibition (INH)” value in assay [3] is on record as 76%; in assay [4], 51%. Besides, in assay [1], the IC50 turned out to be 2.33 nM.
With `C[C@@H](O)CN(C[C@@H](O)[C@H](Cc1ccccc1)NC(=O)c1cc(O)cc(O)c1)S(=O)(=O)c1ccc([N+](=O)[O-])cc1`, in assay [2], the “Selectivity Index” value is reported as 1.38. In addition, the entries for the “inhibition (INH)” value in assay [3] and in assay [4] were 58% and 42%, respectively. The compound also showed an IC50 in assay [1] of 4.83 nM.
Take `COc1cc(O)c(C(=O)N[C@@H](Cc2ccccc2)[C@H](O)CN(C[C@@H](C)O)S(=O)(=O)c2ccc([N+](=O)[O-])cc2)cc1OC`: the IC50 in assay [1] was found to be 102 nM.
As for `CC(C)CN(C[C@@H](O)[C@H](Cc1ccccc1)NC(=O)O[C@H]1CO[C@H]2OCC[C@H]21)S(=O)(=O)c1ccc(N)cc1`, the results for the “inhibition (INH)” value in assay [5] and in assay [6] were 95% and 59%, respectively.
As for `C[C@H](O)CN(C[C@@H](O)[C@H](Cc1ccccc1)NC(=O)c1cc(O)cc(O)c1)S(=O)(=O)c1ccc(C(F)(F)F)cc1`, the IC50 in assay [1] was 27.2 nM.
The compound `C[C@H](O)CN(C[C@@H](O)[C@H](Cc1ccccc1)NC(=O)c1cc(O)cc(O)c1)S(=O)(=O)c1ccc([N+](=O)[O-])cc1` displayed an IC50 in assay [1] of 37.4 nM.
The same measure, in the same setting: for `C[C@H](O)CN(C[C@@H](O)[C@H](Cc1ccccc1)NC(=O)c1ccc(O)c(O)c1)S(=O)(=O)c1ccc(C(F)(F)F)cc1` the value was 6.53 nM.
In the case of `C[C@@H](O)CN(C[C@@H](O)[C@H](Cc1ccccc1)NC(=O)c1ccc(O)c(O)c1)S(=O)(=O)c1ccc(C(F)(F)F)cc1`, the “Selectivity Index” value in assay [2] turned out to be 1.43. The “inhibition (INH)” value amounted to 66% in assay [3] and 46% in assay [4]. The compound also registered an IC50 in assay [1] of 1.64 nM.
In assay [1], `C[C@@H](O)CN(C[C@@H](O)[C@H](Cc1ccccc1)NC(=O)c1ccccc1O)S(=O)(=O)c1ccc([N+](=O)[O-])cc1` displayed an IC50 of 9 nM.
In assay [1], `COc1cc(C(=O)N[C@@H](Cc2ccccc2)[C@H](O)CN(C[C@H](C)O)S(=O)(=O)c2ccc(C(F)(F)F)cc2)cc(OC)c1O` came in with an IC50 of 14 nM.
